Test results as given in a compilation of properties of binary mixtures (doi:10.1021/acs.jpcb.0c03296).

Assay: xn = mol fraction of the nth substance listed
Settings: 100 kPa

C[N+](C)(C)CCO.O=S(=O)([N-]S(=O)(=O)C(F)(F)F)C(F)(F)F + OCCO
Settings | electrical conductivity, x1 = 0.14 [S/m] | electrical conductivity, x1 = 0.2 [S/m] | electrical conductivity, x1 = 0.333 [S/m] | viscosity, x1 = 0.14 [mPa·s] | viscosity, x1 = 0.2 [mPa·s] | viscosity, x1 = 0.333 [mPa·s]
298.1 K | 0.313 | 0.402 | 0.36 | 22.27 | 28.99 | 30.56
303 K | – | 0.494 | 0.442 | – | 23.44 | 24.82
308.1 K | 0.456 | 0.6 | 0.532 | 14.46 | 18.97 | 20.46
313 K | 0.54 | 0.715 | 0.635 | 12.12 | 15.74 | 17.15
318.1 K | 0.631 | 0.839 | 0.745 | 10.36 | 13.28 | 14.48
323 K | – | 0.975 | 0.866 | – | 11.32 | 12.28
328.1 K | 0.838 | 1.12 | 1 | 7.73 | 9.77 | 10.7
